Source: publication PMC9414874, “New Benzimidazoles Targeting Breast Cancer: Synthesis, Pin1 Inhibition, 2D NMR Binding, and Computational Studies” (Molecules, 2022)
Where “and” joins values, the source holds several entries; their conditions need not be identical. Equal entries are not always repeated. Where two headings read alike, the source gives them in different places.

Columns and labels:
[1] = tested on: MCF-7; assay: MTT cytotoxicity assay against breast cancer cell line MCF-7; settings: for Cytotoxic activity class against MCF-7: class by IC50
Procedure: All our newly synthesized hybrids were evaluated for their in vitro anticancer activity by the standard MTT assay against a breast cancer cell line (MCF-7). MTT is a calorimetric assay which relies on the ability of live tumor cells to reduce yellow MTT (3-(4,5-dimethylthiazol-2-yl)-2,5-diphenyltetrazolium bromide) to purple formazan by mitochondrial dehydrogenases, then added DMSO to dissolve the purple formazan and quantified by measuring absorbance at a certain wavelength. The dose response curve for compounds-treated vs. untreated cells is used to quantify the amount of formazan produced to report on the effectiveness of the compounds. […] Cell line: Mammary gland breast cancer (MCF-7). The cell line was obtained from ATCC via Holding company for biological products and vaccines (VACSERA), Cairo, Egypt. […] The cell line elucidated above were used to determine the inhibitory effects of compounds on cell growth using the MTT assay. […] After incubation, the cells were treated with different concentrations of compounds and incubated for an additional 24 h. After 24 h of drug treatment, 20 µL of MTT solution at 5 mg/mL was added and incubated for 4 h. […] The relative cell viability in percentage was calculated as (A570 of treated samples/A570 of the untreated sample) × 100 [48].

[2] = biological target: T1, Pin1 (Homo sapiens, UniProt Q13526); assay: Pin1 inhibition assay (SensoLyte Green Pin1 Assay Kit); assay type: biochemical; design: purchased; settings: for IC50: means ± SD of three experiments; for inhibition at 0.0001 µg/mL: conc 0.1 ng/ml; for inhibition at 0.0001 µg/mL / inhibition at 0.001 µg/mL / inhibition at 0.01 µg/mL / inhibition at 0.1 µg/mL: read-out: Pin1 %inh; for inhibition at 0.001 µg/mL: conc 1 ng/ml; for inhibition at 0.01 µg/mL: conc 10 ng/ml; for inhibition at 0.1 µg/mL: conc 100 ng/ml
T1 sequence (Q13526 whole entry): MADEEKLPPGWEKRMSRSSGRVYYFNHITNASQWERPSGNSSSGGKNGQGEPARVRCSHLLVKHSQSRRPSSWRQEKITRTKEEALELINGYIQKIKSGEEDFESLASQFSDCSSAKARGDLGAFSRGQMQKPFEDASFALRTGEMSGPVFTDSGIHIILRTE
Procedure: The ability of the synthesized compounds to inhibit the Pin1 activity was evaluated using the SensoLyte® Green Pin1 Assay Kit. This assay is based on using a fluorogenic substrate which was pretreated to convert it into the cis isomer. Pin1 can change this substrate into the trans isomer that is easily cleaved to generate a fluorescent signal.

[3] = biological target: Pin1's PPIase activity; design: method as in PMID 19969456; settings: read-out: IC50 of Pin1's PPIase activity inhibition; cited from earlier work
[4] = biological target: T1, Pin1; assay: 2D 15N-1H HSQC NMR binding to 15N-labeled Pin1; design: Backbone and side-chain chemical shift assignments of full-length, apo, human Pin1; made in house; settings: Pin1 200 µM, compound 1 mM, 5% DMSO
From the text: Herein, ^15N-labeled Pin1 enzyme is used where we recorded HSQC spectra of the protein alone and in the presence of an excess amount of one of the newly synthesized compounds. The main challenge we faced in our research was the compound solubility in a balanced mixture of the protein aqueous buffer. Although our compound was freely soluble in DMSO, it is inapplicable to use pure DMSO to dissolve the protein because this will result in protein denaturation and probably aggregation. Therefore, only one compound was tested where we were able to dissolve it partially in a mixture of 95% buffer and 5% DMSO. In addition, as a control, the spectrum was recorded only in presence of DMSO and compared to the ones with the ligand. The proportion of Pin1 to the compounds was adjusted to be […]. […] Chemical shift perturbation and peak shifting are indicative of fast exchange between free and bound states which results in peak positions averaging. […] This peak disappearing indicated exchange on the μs–ms time scale (Figure 1). Furthermore, our NMR results have been verified using cell lines.
The expression and purification of ^15N-labeled Pin1 was performed according to the known protocol. The enzyme sample reached a final concentration of 200 µM in PBS buffer at pH = 6.5. Compound number 12 was dissolved in DMSO and added to the protein to achieve a final concentration of 1 mM in the NMR tube. […]

[5] = In vitro cytotoxicity against normal Human lung fibroblast (WI38) cell line; assay type: cell-based; settings: human, WI38 normal lung fibroblast cells
[6] = Homo sapiens, MCF7, 24 h, read-out: In Vitro Cytotoxicity IC50 MCF-7, MTT assay, 24 h treatment
[7] = Homo sapiens, MCF7, read-out: IC50 against breast cancer cell line (MCF-7), MTT assay, section 2.2

Compound	melting point	IC50 [1, 6]	Cytotoxic activity class against MCF-7 [1]	further results
2-(4-Bromophenyl)-7,8-dichlorobenzo[4,5]imidazo[1,2-a]pyridin-4-ol [Compound 14]	–	–	–	IC50 [1]: 46 ± 2.9 µM
Tannic acid [reference compound]	–	–	–	IC50 [2]: 0.000535 µM and 0.00053 µM
O=C(O)c1cc2ccccc2[nH]1 [Indole-2-carboxylic acid (I), Indole-2-carboxylic acid]	–	–	–	IC50 [3]: 16 µM
C=C1c2nc3cc(Cl)c(Cl)cc3n2C=C(c2ccc(Br)cc2)N1c1ccccc1C [Compound 11, 3-(4-Bromophenyl)-7,8-dichloro-1-methylene-2-(o-tolyl)-1,2-dihydrobenzo[4,5]imidazo[1,2-a]pyrazine]	106 °C	38 ± 2.7 µM	moderate (21–50 (moderate))	–
C=C1c2nc3cc(Cl)c(Cl)cc3n2C=C(c2ccc(Br)cc2)N1c1ccc(C)cc1 [Compound 10, 3-(4-Bromophenyl)-7,8-dichloro-1-methylene-2-(p-tolyl)-1,2-dihydrobenzo[4,5]imidazo[1,2-a]pyrazine]	211 °C	53 ± 3.1 µM	weak (51–100 (weak))	–
C=C1c2nc3cc(Cl)c(Cl)cc3n2C=C(c2ccc(Br)cc2)N1Cc1ccccc1 [Compound 12, 2-Benzyl-3-(4-bromophenyl)-7,8-dichloro-1-methylene-1,2-dihydrobenzo[4,5]imidazo[1,2-a]pyrazine]	85 °C	31.3 ± 2.5 µM	moderate (21–50 (moderate))	Binding to Pin1 by HSQC spectra overlay [4]: chemical shift perturbation and peak disappearance; IC50 [2]: 0.00111 µM and 0.0011 µM; IC50 at 24 h [5]: 45.7 ± 2.8 µM
CC(=O)c1nc2cc(Cl)c(Cl)cc2n1CC(=O)c1ccc(Br)cc1 [Compound 9, 2-(2-Acetyl-5,6-dichloro-1H-benzo[d]imidazol-1-yl)-1-(4-bromophenyl)ethan-1-one]	322 °C	63.9 ± 3.4 µM	–	inhibition at 0.0001 µg/mL [2]: 34.7%; inhibition at 0.001 µg/mL [2]: 42.2%; inhibition at 0.01 µg/mL [2]: 69.5%; inhibition at 0.1 µg/mL [2]: 87.5%
CN(C)c1ccc(C2C=C(c3nc4cc(Cl)c(Cl)cc4[nH]3)OC(N)=C2C#N)cc1 (stereo not shown) [Compound 7, 2-Amino-6-(5,6-dichloro-1H-benzo[d]imidazol-2-yl)-4-(4-(dimethylamino)phenyl)-4H-pyran-3-carbonitrile]	150 °C	21 ± 1.8 µM	moderate (21–50 (moderate))	–
CN(C)c1ccc(C2=NN=C(c3nc4cc(Cl)c(Cl)cc4[nH]3)C2)cc1 [Compound 5, 4-(5-(5,6-Dichloro-1H-benzo[d]imidazol-2-yl)-4H-pyrazol-3-yl)-N,N-dimethylaniline]	216 °C	11.7 ± 0.9 µM	strong (11–20 (strong))	IC50 [2]: 0.00064 ± 3e-05 µM; IC50 [1, 7]: 11.8 µM; IC50 at 24 h [5]: 67.9 ± 3.6 µM
CN(C)c1ccc(-c2cc(-c3nc4cc(Cl)c(Cl)cc4[nH]3)nc(N)c2C#N)cc1 [Compound 6, 2-Amino-6-(5,6-dichloro-1H-benzo[d]imidazol-2-yl)-4-(4-(dimethylamino)phenyl)nicotinonitrile]	168 to 170 °C	15.4 ± 1.3 µM	strong (11–20 (strong))	IC50 [1, 7]: 15.5 µM
CN(C)c1ccc(/C=C/C(=O)c2nc3cc(Cl)c(Cl)cc3[nH]2)cc1 [Compound 4, (E)-1-(5,6-Dichloro-1H-benzo[d]imidazol-2-yl)-3-(4-(dimethylamino)phenyl)prop-2-en-1-one]	258 to 260 °C	26.9 µM	moderate (21–50 (moderate))	IC50 ([1]; read-out: In Vitro Cytotoxicity IC50 MCF-7, MTT assay, 24 h treatment): 26.8 ± 2.1 µM
CC(O)c1nc2cc(Cl)c(Cl)cc2[nH]1 (stereo not shown) [Compound 2]	–	–	–	inhibition at 0.0001 µg/mL [2]: 39.2%; inhibition at 0.001 µg/mL [2]: 51.1%; inhibition at 0.01 µg/mL [2]: 67%; inhibition at 0.1 µg/mL [2]: 85.2%
Cc1nc(-c2ccc(Br)cc2)cn2c1nc1cc(Cl)c(Cl)cc12 [Compound 13, 3-(4-Bromophenyl)-7,8-dichloro-1-methylbenzo[4,5]imidazo[1,2-a]pyrazine]	290 °C	71.8 ± 3.8 µM	weak (51–100 (weak))	IC50 [1, 7]: 71.9 µM
